A word on the pKi: it is −log10 of the Ki, conventionally taken in molar units. Higher therefore signals a small Ki. Broadly, the Kb is the equilibrium dissociation constant of an antagonist, usually derived from a functional assay.

We go through nine compounds from ChEMBL document CHEMBL3994665, “Pyrano[2,3,4-cd]indole as a Scaffold for Selective Nonbasic 5-HT6R Ligands” (ACS Med Chem Lett, 2017).

pKi: −log10 of the molar value. Where only a bound is given, the exact number is not on record here.

Chain of 5-hydroxytryptamine receptor 2A (P28223 whole entry): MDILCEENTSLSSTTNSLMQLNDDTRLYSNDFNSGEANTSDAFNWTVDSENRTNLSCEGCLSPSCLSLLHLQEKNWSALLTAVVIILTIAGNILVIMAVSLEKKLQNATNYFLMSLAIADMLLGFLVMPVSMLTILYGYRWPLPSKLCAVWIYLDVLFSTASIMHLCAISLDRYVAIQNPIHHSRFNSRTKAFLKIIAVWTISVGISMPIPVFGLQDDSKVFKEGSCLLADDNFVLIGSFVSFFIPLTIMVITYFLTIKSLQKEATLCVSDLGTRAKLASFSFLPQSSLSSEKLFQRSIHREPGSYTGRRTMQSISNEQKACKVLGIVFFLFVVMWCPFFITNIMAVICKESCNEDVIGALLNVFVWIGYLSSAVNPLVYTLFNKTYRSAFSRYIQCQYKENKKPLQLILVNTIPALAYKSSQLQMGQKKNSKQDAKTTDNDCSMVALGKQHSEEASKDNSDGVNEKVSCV

The first experiment deals with 5-hydroxytryptamine receptor 7 (Homo sapiens, UniProt P34969). The experiment is described as follows: Displacement of [3H]-5-CT from 5-HT7b receptor (unknown origin). Background: Loss of bound radioactivity is the signal in a displacement assay; it reports binding, not function.
Chain of 5-hydroxytryptamine receptor 7 (P34969 whole entry): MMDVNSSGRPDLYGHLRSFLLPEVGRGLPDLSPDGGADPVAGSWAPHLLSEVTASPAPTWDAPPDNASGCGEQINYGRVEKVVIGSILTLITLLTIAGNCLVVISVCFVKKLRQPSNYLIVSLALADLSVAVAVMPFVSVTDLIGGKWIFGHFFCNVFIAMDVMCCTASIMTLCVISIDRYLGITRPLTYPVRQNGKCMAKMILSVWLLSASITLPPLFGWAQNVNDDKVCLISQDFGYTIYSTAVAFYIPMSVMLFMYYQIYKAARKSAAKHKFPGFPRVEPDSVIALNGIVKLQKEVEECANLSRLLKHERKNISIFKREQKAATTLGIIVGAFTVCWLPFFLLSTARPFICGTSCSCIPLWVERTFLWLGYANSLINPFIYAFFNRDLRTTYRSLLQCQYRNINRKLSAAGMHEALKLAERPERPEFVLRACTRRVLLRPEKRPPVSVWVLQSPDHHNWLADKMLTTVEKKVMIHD
Take `O=CC1=Cc2cn(S(=O)(=O)c3cccc4ccccc34)c3cccc(c23)O1`: the pKi was less than 5.00.

`O=S(=O)(c1cccc2ccccc12)n1cc2c3c(cccc31)OC(CO)=C2`: the pKi is less than 5.00.

As for `N#CC1=Cc2cn(S(=O)(=O)c3cccc4ccccc34)c3cccc(c23)O1`, the pKi is less than 5.00.

Turning to `CCN(CC)CC1=Cc2cn(S(=O)(=O)c3ccccc3)c3cccc(c23)O1`, the pKi was less than 5.00.

As for `CC1=C(CO)Oc2cccc3c2c1cn3S(=O)(=O)c1cccc2ccccc12`, the pKi is less than 5.00.

For `CN(C)CC1=Cc2cn(S(=O)(=O)c3cccc4ccccc34)c3cccc(c23)O1`, the negative-log Ki (pKi) is 6.36.

Regarding `CN(C)CC1=Cc2cn(S(=O)(=O)c3ccccc3)c3cccc(c23)O1`, the pKi was 5.43. Compared with the last compound, the pKi is 0.93 log units lower.

Regarding `CC1=C(CO)Oc2cccc3c2c1cn3S(=O)(=O)c1ccccc1`, the pKi was less than 5.00.

`O=S(=O)(c1ccccc1)n1cc2c3c(cccc31)OC(CO)=C2` had a negative logarithm of the Ki (pKi) of less than 5.00.

In the next experiment the target is T1, 5-hydroxytryptamine receptor 6 (Homo sapiens, UniProt P50406). Put plainly: Displacement of [3H]-LSD from 5-HT6 receptor (unknown origin).
T1 sequence (P50406 whole entry): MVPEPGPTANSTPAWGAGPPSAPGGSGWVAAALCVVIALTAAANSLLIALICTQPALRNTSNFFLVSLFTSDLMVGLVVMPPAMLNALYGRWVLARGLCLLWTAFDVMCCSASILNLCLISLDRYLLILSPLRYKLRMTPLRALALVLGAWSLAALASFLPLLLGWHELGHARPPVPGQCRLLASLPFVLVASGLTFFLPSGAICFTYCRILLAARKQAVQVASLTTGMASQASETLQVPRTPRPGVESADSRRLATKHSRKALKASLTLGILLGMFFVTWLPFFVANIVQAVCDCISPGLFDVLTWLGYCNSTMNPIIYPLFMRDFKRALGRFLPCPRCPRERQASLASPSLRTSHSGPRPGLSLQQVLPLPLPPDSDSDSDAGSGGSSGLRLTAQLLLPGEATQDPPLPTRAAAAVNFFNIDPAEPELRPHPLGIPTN
`O=CC1=Cc2cn(S(=O)(=O)c3cccc4ccccc34)c3cccc(c23)O1` showed a pKi of 6.58.

`O=S(=O)(c1cccc2ccccc12)n1cc2c3c(cccc31)OC(CO)=C2` gave a pKi of 8.40.

`N#CC1=Cc2cn(S(=O)(=O)c3cccc4ccccc34)c3cccc(c23)O1` gave a pKi of 6.12.

As to `CCN(CC)CC1=Cc2cn(S(=O)(=O)c3ccccc3)c3cccc(c23)O1`, the pKi was 7.55.

In turn, `CC1=C(CO)Oc2cccc3c2c1cn3S(=O)(=O)c1cccc2ccccc12` showed a pKi of 7.70.

`CN(C)CC1=Cc2cn(S(=O)(=O)c3cccc4ccccc34)c3cccc(c23)O1` gave a pKi of 9.00.

The compound `CN(C)CC1=Cc2cn(S(=O)(=O)c3ccccc3)c3cccc(c23)O1` had a negative-log Ki (pKi) of 8.30.

The compound `CC1=C(CO)Oc2cccc3c2c1cn3S(=O)(=O)c1ccccc1` gave a pKi of 7.28. This pKi lies 1.02 log units lower than the previous one.

Take `O=S(=O)(c1ccccc1)n1cc2c3c(cccc31)OC(CO)=C2`: the pKi is 7.44. The pKi values of the last two compounds are within 0.2 log units of each other.

A further experiment deals with T2, 5-hydroxytryptamine receptor 1A (Homo sapiens, UniProt P08908).
T2 sequence (P08908 whole entry): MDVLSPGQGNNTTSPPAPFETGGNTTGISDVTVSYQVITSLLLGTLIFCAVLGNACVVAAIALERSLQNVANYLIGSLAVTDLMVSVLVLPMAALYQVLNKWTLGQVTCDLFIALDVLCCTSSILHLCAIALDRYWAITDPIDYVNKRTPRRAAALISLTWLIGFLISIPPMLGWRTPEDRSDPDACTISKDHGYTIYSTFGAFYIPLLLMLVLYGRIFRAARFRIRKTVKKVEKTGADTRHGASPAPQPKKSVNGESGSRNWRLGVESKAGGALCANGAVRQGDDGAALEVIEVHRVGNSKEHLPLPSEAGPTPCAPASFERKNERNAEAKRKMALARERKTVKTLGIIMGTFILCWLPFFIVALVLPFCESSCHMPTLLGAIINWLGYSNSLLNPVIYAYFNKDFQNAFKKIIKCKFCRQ
The experiment is described as follows: Displacement of [3H]-8-OH-DPAT from 5HT1A receptor (unknown origin).
`O=CC1=Cc2cn(S(=O)(=O)c3cccc4ccccc34)c3cccc(c23)O1` had a negative logarithm of the Ki (pKi) of less than 5.00.

In the case of `N#CC1=Cc2cn(S(=O)(=O)c3cccc4ccccc34)c3cccc(c23)O1`, the pKi was less than 5.00.

The compound `CCN(CC)CC1=Cc2cn(S(=O)(=O)c3ccccc3)c3cccc(c23)O1` gave a pKi of less than 5.00.

As to `CC1=C(CO)Oc2cccc3c2c1cn3S(=O)(=O)c1cccc2ccccc12`, the pKi is less than 5.00.

For the compound `CN(C)CC1=Cc2cn(S(=O)(=O)c3cccc4ccccc34)c3cccc(c23)O1`, the negative-log Ki (pKi) is 5.22.

Consider `CN(C)CC1=Cc2cn(S(=O)(=O)c3ccccc3)c3cccc(c23)O1`, for which the pKi is less than 5.00.

The compound `CC1=C(CO)Oc2cccc3c2c1cn3S(=O)(=O)c1ccccc1` showed a pKi of less than 5.00.

As to `O=S(=O)(c1ccccc1)n1cc2c3c(cccc31)OC(CO)=C2`, the pKi is less than 5.00.

A further experiment deals with D(2) dopamine receptor (Homo sapiens, UniProt P14416). The experiment is described as follows: Displacement of [3H]-Raclopride from D2L receptor (unknown origin).
Chain of D(2) dopamine receptor (P14416 whole entry): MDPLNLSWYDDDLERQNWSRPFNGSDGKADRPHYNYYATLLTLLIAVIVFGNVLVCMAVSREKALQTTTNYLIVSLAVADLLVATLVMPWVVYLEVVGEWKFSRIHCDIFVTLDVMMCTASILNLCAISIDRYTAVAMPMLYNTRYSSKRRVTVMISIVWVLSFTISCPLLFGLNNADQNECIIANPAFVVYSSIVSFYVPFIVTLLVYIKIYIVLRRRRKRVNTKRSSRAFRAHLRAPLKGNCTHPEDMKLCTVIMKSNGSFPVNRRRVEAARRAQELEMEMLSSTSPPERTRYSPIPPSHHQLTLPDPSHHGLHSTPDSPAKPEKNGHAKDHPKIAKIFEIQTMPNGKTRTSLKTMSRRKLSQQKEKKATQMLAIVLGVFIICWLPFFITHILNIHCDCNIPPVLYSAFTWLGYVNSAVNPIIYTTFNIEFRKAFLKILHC
Compound `O=CC1=Cc2cn(S(=O)(=O)c3cccc4ccccc34)c3cccc(c23)O1` had a pKi of 5.29.

Compound `O=S(=O)(c1cccc2ccccc12)n1cc2c3c(cccc31)OC(CO)=C2` showed a pKi of 5.37.

For the compound `N#CC1=Cc2cn(S(=O)(=O)c3cccc4ccccc34)c3cccc(c23)O1`, the pKi is less than 5.00.

Take `CCN(CC)CC1=Cc2cn(S(=O)(=O)c3ccccc3)c3cccc(c23)O1`: the pKi was 5.36.

Regarding `CC1=C(CO)Oc2cccc3c2c1cn3S(=O)(=O)c1cccc2ccccc12`, the pKi is less than 5.00.

Turning to `CN(C)CC1=Cc2cn(S(=O)(=O)c3cccc4ccccc34)c3cccc(c23)O1`, the pKi is 5.83.

With `CN(C)CC1=Cc2cn(S(=O)(=O)c3ccccc3)c3cccc(c23)O1`, the negative-log Ki (pKi) was 5.17.

`CC1=C(CO)Oc2cccc3c2c1cn3S(=O)(=O)c1ccccc1` had a negative-log Ki (pKi) of less than 5.00.

`O=S(=O)(c1ccccc1)n1cc2c3c(cccc31)OC(CO)=C2` gave a pKi of less than 5.00.

A further experiment has as its target 5-hydroxytryptamine receptor 2A (Homo sapiens, UniProt P28223). The experiment is described as follows: Binding affinity to 5HT2A receptor (unknown origin).
The compound `O=S(=O)(c1cccc2ccccc12)n1cc2c3c(cccc31)OC(CO)=C2` had a pKi of less than 5.00.

The compound `CCN(CC)CC1=Cc2cn(S(=O)(=O)c3ccccc3)c3cccc(c23)O1` had a pKi of 5.77.

`CC1=C(CO)Oc2cccc3c2c1cn3S(=O)(=O)c1cccc2ccccc12` showed a pKi of less than 5.00.

In the case of `CN(C)CC1=Cc2cn(S(=O)(=O)c3cccc4ccccc34)c3cccc(c23)O1`, the negative logarithm of the Ki (pKi) is 6.31.

Consider `CN(C)CC1=Cc2cn(S(=O)(=O)c3ccccc3)c3cccc(c23)O1`, for which the pKi is 7.19.

In turn, `CC1=C(CO)Oc2cccc3c2c1cn3S(=O)(=O)c1ccccc1` gave a pKi of less than 5.00.

`O=S(=O)(c1ccccc1)n1cc2c3c(cccc31)OC(CO)=C2` gave a pKi of less than 5.00.

Another experiment addresses T1, 5-hydroxytryptamine receptor 6. The experiment is described as follows: Antagonist activity at 5-HT6 receptor (unknown origin) expressed in HEK293 cells assessed as inhibition of 5-CT induced cAMP production after 30 mins by TR-FRET assay. The format is functional, cell-based. For orientation: Cyclic AMP is a second messenger, typically raised through Gs and lowered through Gi signalling.
With `O=S(=O)(c1ccccc1)n1cc2c3c(cccc31)OC(CO)=C2`, the Kb is 0.016 µM.
